Key:
[1] = system: Pancreatic cancer cells such as BxPC3, CFPAC1, PANC1, DANG, and PATU8902; experiment: Crystal Violet cell growth with chemotherapy drugs in complete or P/S/G free media; type: cell-based, Human; details: P/S/G free media vs complete media, +10% dialyzed FBS, 3 days, Crystal Violet staining
Experimental: A study was performed to evaluate the efficacy of a disclosed composition in the treatment of cancer when combined with a chemotherapy drug. Pancreatic cancer cells such as BxPC3, CFPAC1, PANC1, DANG, and PATU8902 were treated with either Gemcitabine (GEM), Paclitaxel (PAC), GEM+PAC, and FOLFIRINOX (which is a combination of 5FU, Oxaliplatin, Folinic acid, and Irinotecan), in combination with complete media, or with media free of the amino acids […]), as indicated in FIG. 4 rows A-D. Cells were seeded in 96-well plates and in complete media+10% FBS. 24 hours later, cells were washed with PBS followed by addition of the indicated drugs with either complete or P/S/G free media+10% dialyzed FBS. Cells were grown for 3 more days, and cell growth was measured using Crystal Violet staining. […] Error bars denote the standard deviation.

[2] = system: Pancreatic cancer cell lines such as BxPC3, CFPAC1, PANC1, DANG and PATU8902; experiment: Crystal Violet cell growth with serabelisib in complete or P/S/G free media; type: cell-based, Human; details: P/S/G free media vs complete media, 3 days, Crystal Violet staining
Experimental: A study was performed to evaluate the efficacy of disclosed compositions in the treatment of cancer when combined with a targeted anti-cancer therapy. Pancreatic cancer cell lines such as BxPC3, CFPAC1, PANC1, DANG and PATU8902 were treated with an alpha specific PI3K inhibitor, serabelisib. Cells were seeded in 96-well plates and in complete media+10% FBS. 24 hours later, cells were washed with PBS followed by addition of serabelisib with either complete or P/S/G free media+10% dialysed FBS (FIG. 6A-6F). Cells were grown for 3 more days and cell growth was measured using Crystal Violet staining. Error bars denote standard deviation. […] P/S/G starvation pushes the response curve down and to the left meaning lower concentrations of drug achieve the same cell kill.

SMILES	effect of restriction of proline, serine, and glycine on cell growth response to the drug [1]	cell kill by serabelisib under P/S/G starvation [2]
Nc1ccn([C@@H]2O[C@H](CO)[C@@H](O)C2(F)F)c(=O)n1 [gemcitabine, Gemcitabine]	sensitized cancer cells	
CC(=O)O[C@H]1C(=O)[C@@]2(C)[C@H]([C@H](OC(=O)c3ccccc3)[C@]3(O)C[C@H](OC(=O)[C@H](O)[C@@H](NC(=O)c4ccccc4)c4ccccc4)C(C)=C1C3(C)C)[C@]1(OC(C)=O)CO[C@@H]1C[C@@H]2O [paclitaxel, Paclitaxel]	sensitized cancer cells	
Nc1nc2cc(-c3ccc4ncc(C(=O)N5CCOCC5)n4c3)ccc2o1 [serabelisib]		improved cell kill at lower drug concentrations
